From US8350010B2, “Anti-alpha5/beta1 antibody” (Genentech, Inc., priority 2006, dated 2013)

Tested on: HCT116 tumor cells (colon tumor cells)
Assay: HCT116 colon tumor model, anti-alpha5beta1 + chemotherapy
Assay type: in vivo, HRLN female nu/nu mice
Settings: chemotherapeutic agent by itself
Protocol: HRLN female nu/nu mice were injected with 5×10^6 HCT116 tumor cells (colon tumor cells) subcutaneously in their flanks. Tumors were allowed to grow until they reach an average size of 80-120 cubic mm before treatment with therapies. Tumor bearing mice were then divided into 4 groups:
Tumor volume measurement was carried out twice a week using a standard caliper measurement method. The hamster anti-mouse integrin alpha5 mab, known as 10E7, was generated at Genentech. Body weight was measured 5 times over 2 days then twice per week (biwk) to the end of the study. The endpoint of the experiment was a tumor volume of 1.5 gms or 60 days, whichever came first. Some responders were followed longer. When the endpoint was reached, the animals were euthanized. The dosing volume was 10 mL/kg (0.200 ml/20 g mouse), which volume was adjusted for body weight. 10E7 was administered 30 minutes before irinotecan administration. For animals showing complete regression (CR), tissues at the site of tumor implantation were collected at endpoint and preserved in formulin followed by 70% EtOH for later study. All samples to be frozen were placed in a cryomold, wrapped in foil & snap frozen on liquid nitrogen.

SMILES: CCc1c2c(nc3ccc(OC(=O)N4CCC(N5CCCCC5)CC4)cc13)-c1cc3c(c(=O)n1C2)COC(=O)[C@]3(O)CC [irinotecan]
- vascular damage: did not cause significant vascular damage
